Reference: ChEMBL document CHEMBL1201862, “PubChem BioAssay data set” (2004)
Values joined by “and” are separate entries in the source; they are usually repeats but may differ in a detail not shown here. Identical values can stand only once.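 Values below derive from 48-hour exposures of cells grown in 96-well plates, with endpoints linearly interpolated between the two concentrations bracketing the appropriate inhibition level. Here, GI50 denotes the concentration required for 50% inhibition of growth.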 Active and inactive are the calls of the source. Rule as the data show it: active = GI50 up to about 1.1 µM and inactive = higher.

Experiments:
Assay in all cases: inhibition of tumour cell growth, NCI panel, 48 h
[1] = test system: 786-0
[2] = test system: A498
[3] = test system: A549
[4] = test system: HCT-116
[5] = test system: HT-29
[6] = test system: IGROV-1
[7] = test system: KM-20L2
[8] = test system: KM12
[9] = test system: M14
[10] = test system: NCI-H226
[11] = test system: NCI-H23
[12] = test system: NCI-H522
[13] = test system: RPMI-8226
[14] = test system: RXF 631
[15] = test system: SF-268
[16] = test system: SF-539
[17] = test system: SK-MEL-28
[18] = test system: SK-OV-3
[19] = test system: SNB-19
[20] = test system: SNB-78
[21] = test system: SR
[22] = test system: SW-620
[23] = test system: TK-10
[24] = test system: UACC-257
[25] = test system: UO-31
[26] = test system: ACHN
[27] = test system: CAKI-1
[28] = test system: CCRF-CEM
[29] = test system: COLO 205
[30] = test system: DLD-1
[31] = test system: DMS-114
[32] = test system: EKVX
[33] = test system: HCT-15
[34] = test system: HOP-18
[35] = test system: HOP-92
[36] = test system: K562
[37] = test system: LOX IMVI
[38] = test system: LXFL 529
[39] = test system: M19-MEL
[40] = test system: MOLT-4
[41] = test system: Malme-3M
[42] = test system: OVCAR-3
[43] = test system: OVCAR-4
[44] = test system: OVCAR-5
[45] = test system: OVCAR-8
[46] = test system: RXF 393
[47] = test system: SK-MEL-2
[48] = test system: SK-MEL-5
[49] = test system: SN12C
[50] = test system: SNB-75
[51] = test system: U-251
[52] = test system: UACC-62
[53] = test system: XF498
[54] = test system: HCC 2998
[55] = test system: HOP-62
[56] = test system: SF-295
[57] = test system: DMS-273
[58] = test system: HL-60
[59] = test system: NCI-H460

Measured: GI50

Clc1ccc2c(c1)[nH]c1c2nc2ccccn21
inactive: [1] 22.1 µM | [2] 27.1 µM | [3] 50.1 µM | [4] 21.2 µM | [5] 21.9 µM | [6] 30.8 µM | [7] 27.9 µM | [8] 19.3 µM | [9] 24.7 µM | [10] 22.4 µM | [11] 24.7 µM | [12] 19.5 µM | [13] 23.7 µM | [14] 43 µM | [15] 28.6 µM | [16] 22.6 µM | [17] 21.3 µM | [18] 30.3 µM | [19] 22.4 µM | [20] 24 µM | [21] 25.1 µM | [22] 18.5 µM | [23] > 10 µM | [24] 29.2 µM | [25] 19.5 µM

Nc1ccc(-c2cc(C(=O)Nc3nccs3)nc(S)n2)cc1
inactive: [1] > 100 µM | [2] > 100 µM | [3] > 100 µM | [26] > 100 µM | [27] > 100 µM | [28] > 100 µM | [29] > 100 µM | [30] > 100 µM | [31] > 100 µM | [32] > 100 µM | [4] > 100 µM | [34] 61.1 µM | [35] > 100 µM | [5] > 100 µM | [6] > 100 µM | [36] > 100 µM | [7] > 100 µM | [8] > 100 µM | [37] > 100 µM | [38] > 100 µM | [9] > 100 µM | [39] > 100 µM | [40] > 100 µM | [41] > 100 µM | [10] > 100 µM | [11] > 100 µM | [12] > 100 µM | [42] > 100 µM | [43] > 100 µM | [44] > 100 µM | [45] > 100 µM | [13] > 100 µM | [46] > 100 µM | [15] > 100 µM | [16] > 100 µM | [17] > 100 µM | [47] > 100 µM | [48] > 100 µM | [18] > 100 µM | [49] > 100 µM | [19] > 100 µM | [50] > 100 µM | [20] > 100 µM | [22] > 100 µM | [23] > 100 µM | [51] > 100 µM | [24] > 100 µM | [52] > 100 µM | [25] > 100 µM | [53] > 100 µM
> 100 µM: [33]

Cc1cc(O)c(C(=O)O)c2c1C(=O)c1c(O)c(OCC(O)C(O)C(O)C(O)CO)c(O)c(O)c1C2=O.NCCNCCO (configuration not stated)
inactive: [1] > 100 µM | [2] > 100 µM | [3] > 100 µM | [27] > 100 µM | [28] > 100 µM | [29] > 100 µM | [30] > 100 µM | [31] > 100 µM | [32] > 100 µM | [54] > 100 µM | [34] > 100 µM | [55] > 100 µM | [35] > 100 µM | [5] > 100 µM | [6] > 100 µM | [36] > 100 µM | [7] > 100 µM | [8] 39.9 µM | [37] > 100 µM | [38] > 100 µM | [9] > 100 µM | [39] > 100 µM | [40] > 100 µM | [41] > 100 µM | [10] > 100 µM | [11] > 100 µM | [12] > 100 µM | [42] > 100 µM | [43] > 100 µM | [44] > 100 µM | [45] > 100 µM | [13] > 100 µM | [46] > 100 µM | [15] > 100 µM | [56] > 100 µM | [16] > 100 µM | [17] > 100 µM | [47] > 100 µM | [48] > 100 µM | [18] > 100 µM | [49] > 100 µM | [19] > 100 µM | [50] > 100 µM | [20] > 100 µM | [22] > 100 µM | [23] > 100 µM | [51] > 100 µM | [24] > 100 µM | [52] > 100 µM | [25] > 100 µM | [53] > 100 µM
> 100 µM: [33]

COC1(OC)CC2C(=O)N(Cc3ccccc3)C1C(S(=O)(=O)c1ccccc1)C2C(C)S(=O)(=O)c1ccccc1 (configuration not stated)
> 100 µM: [33]
inactive: [1] > 100 µM | [3] > 100 µM | [26] > 100 µM | [27] > 100 µM | [28] > 100 µM | [29] > 100 µM | [30] > 100 µM | [31] 75.5 µM | [57] > 100 µM | [32] 85.5 µM | [54] > 100 µM | [4] > 100 µM | [58] > 100 µM | [34] > 100 µM | [55] > 100 µM | [35] 17 µM | [5] > 100 µM | [6] > 100 µM | [36] > 100 µM | [7] > 100 µM | [8] > 100 µM | [37] > 100 µM | [38] > 100 µM | [9] > 100 µM | [39] > 100 µM | [40] > 100 µM | [41] > 100 µM | [11] > 100 µM | [59] > 100 µM | [12] > 100 µM | [42] > 100 µM | [43] > 100 µM | [44] > 100 µM | [45] > 100 µM | [13] > 100 µM | [46] > 100 µM | [15] > 100 µM | [56] > 100 µM | [16] > 100 µM | [17] > 100 µM | [47] > 100 µM | [48] > 100 µM | [18] > 100 µM | [49] > 100 µM | [19] > 100 µM | [20] > 100 µM | [21] > 100 µM | [22] > 100 µM | [23] > 100 µM | [51] > 100 µM | [24] > 100 µM | [52] > 100 µM | [53] > 100 µM

CC1OC(n2ncc(=O)[nH]c2=O)C=CC1=O (configuration not stated)
inactive: [1] 36.3 µM and 55.2 µM | [3] > 100 µM | [26] 27.9 µM and 37.9 µM | [27] > 100 µM | [54] > 100 µM | [4] 30.4 µM and 55.8 µM | [58] 26.2 µM and 23.7 µM | [5] 41.8 µM and 52.6 µM | [6] > 100 µM | [36] 33.1 µM and 44 µM | [8] 46.1 µM and 63 µM | [37] > 100 µM | [38] > 100 µM and 59 µM | [39] 50.8 µM and 71.3 µM | [41] 22.1 µM and 18.8 µM | [10] > 100 µM | [59] > 100 µM and 63.1 µM | [12] 20 µM and 18.8 µM | [42] 95.3 µM | [43] > 100 µM | [44] > 100 µM | [45] 37.3 µM and 41.1 µM | [13] 33 µM and 24.3 µM | [14] 13.1 µM and 16.4 µM | [56] 52.6 µM | [16] 40.2 µM and 24.2 µM | [17] 31.9 µM and 21.8 µM | [49] 70.3 µM and 35.8 µM | [50] 44.5 µM and 55.5 µM | [20] 21.5 µM and 26.9 µM | [21] 26.7 µM and 33.5 µM | [23] > 100 µM and 71.4 µM | [51] 50.7 µM and 41.2 µM | [52] 31.8 µM and 60.4 µM | [25] > 100 µM
